Assay [1] addresses T1, Recombinant human His-tagged Trim24-PHD-bromodomain (Homo sapiens, UniProt O15164).
T1 construct: Recombinant human His-tagged Trim24-PHD-bromodomain (produced in-house); made in house
T1 sequence (O15164 824-1006 limits assumed): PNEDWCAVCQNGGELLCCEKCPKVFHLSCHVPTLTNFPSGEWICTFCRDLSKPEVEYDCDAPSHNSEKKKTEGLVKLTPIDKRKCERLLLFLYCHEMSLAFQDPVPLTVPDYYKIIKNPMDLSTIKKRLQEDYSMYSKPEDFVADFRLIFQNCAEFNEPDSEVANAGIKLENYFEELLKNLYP
In words: Trim24 AlphaScreen Assay. It is filed as binding. Conditions: 5 nM Trim24 protein, 15 nM biotinylated H3K23ac (1-33aa) peptide. The method, boiled down:
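AlphaScreen read-out after 2 h with streptavidin donor and Ni-chelate acceptor beads at 10 ug/mL each, following 1 h room-temperature incubation of compound, His-tagged PHD-bromodomain protein and biotin-H3K23ac (1-33aa) peptide in Hepes pH 7.5 buffer with NaCl and Triton X-100. Signals normalised between no-compound and no-protein wells; IC50 from four-parameter logistic curves.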

A further assay deals with T2, TRIM24 (Homo sapiens, UniProt O15164).
T2 construct: purchased DiscoveRx (BROMOscan); host or cells: T7 phage in E. coli host derived from BL21
T2 sequence (O15164 899-1004 limits assumed): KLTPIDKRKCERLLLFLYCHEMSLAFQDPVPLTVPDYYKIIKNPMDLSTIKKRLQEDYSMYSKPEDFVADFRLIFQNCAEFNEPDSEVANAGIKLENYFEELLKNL
In words: BROMOscan DiscoveRx Binding Constant Assay (TRIM24). Conditions: qPCR readout. The text has this: (§1) Compounds that bind the bromodomain active site and directly (sterically) or indirectly (allosterically) prevent bromodomain binding to the immobilized ligand, will reduce the amount of protein captured on the solid support (Panels A & B). […] Screening “hits” are identified by measuring the amount of bromodomain captured in test versus control samples by using a quantitative, precise and ultra-sensitive qPCR method that detects the associated DNA label. In a similar manner, dissociation constants (Kd's) for test compound-bromodomain interactions are calculated by measuring the amount of bromodomain captured on the solid support as a function of the test compound concentration.
(§2) Bromodomain assays. T7 phage strains displaying bromodomains were grown in parallel in 24-well blocks in an E. coli host derived from the BL21 strain. E. coli were grown to log-phase and infected with T7 phage from a frozen stock (multiplicity of infection=0.4) and incubated with shaking at 32° C. until lysis (90-150 minutes). The lysates were centrifuged (5,000×g) and filtered (0.2 μm) to remove cell debris. Streptavidin-coated magnetic beads were treated with biotinylated small molecule or acetylated peptide ligands for 30 minutes at room temperature to generate affinity resins for bromodomain assays. The liganded beads were blocked with excess biotin and washed with blocking buffer (SeaBlock (Pierce), 1% BSA, 0.05% Tween 20, 1 mM DTT) to remove unbound ligand and to reduce non-specific phage binding. […] Test compounds were prepared as 1000× stocks in 100% DMSO and subsequently diluted 1:10 in monoethylene glycol (MEG) to create stocks at 100× the screening concentration (resulting stock solution is 10% DMSO/90% MEG). The compounds were then diluted directly into the assays such that the final concentration of DMSO and MEG were 0.1% and 0.9%, respectively. All reactions were performed in polystyrene 96-well plates in a final volume of 0.135 ml.
(§3) The beads were then re-suspended in elution buffer (lx PBS, 0.05% Tween 20, 2 μM nonbiotinylated affinity ligand) and incubated at room temperature with shaking for 30 minutes. The bromodomain concentration in the eluates was measured by qPCR.
(§4) An 11-point 3-fold serial dilution of each test compound was prepared in 100% DMSO at 1000× final test concentration. This serial is then diluted to 100× in ethylene glycol and subsequently diluted to 1× in the assay (final DMSO concentration=0.1%, Ethylene glycol concentration=0.9%). […] If the initial Kd determined was <0.169 nM (the lowest concentration tested), the measurement was repeated with a serial dilution starting at a lower top concentration.
(§5) Binding constants (Kd's) were calculated with a standard dose-response curve using the Hill equation: Response=Background+Signal−Background 1+(Kd Hill Slope/DoseHill Slope) The Hill Slope was set to −1. Curves were fitted using a non-linear least square fit with the Levenberg-Marquardt algorithm.

In a further assay the target is T3, BRPF1 (Homo sapiens, UniProt P55201).
T3 construct: purchased DiscoveRx (BROMOscan); host or cells: T7 phage in E. coli host derived from BL21
T3 sequence (P55201 628-732 limits assumed): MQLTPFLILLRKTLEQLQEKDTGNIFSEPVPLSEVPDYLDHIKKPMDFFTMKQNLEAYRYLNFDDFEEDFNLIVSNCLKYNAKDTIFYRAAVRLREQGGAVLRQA
In words: BROMOscan DiscoveRx Binding Constant Assay (BRPF1). To be noted: qPCR readout.
Text: as §1, §2, §3, §4, §5
For orientation: Real-time PCR tracks product formation cycle by cycle.

The next assay concerns the target T4, BRPF2 (Homo sapiens, UniProt O95696).
T4 construct: purchased DiscoveRx (BROMOscan); host or cells: T7 phage in E. coli host derived from BL21
T4 sequence (O95696 562-666 limits assumed): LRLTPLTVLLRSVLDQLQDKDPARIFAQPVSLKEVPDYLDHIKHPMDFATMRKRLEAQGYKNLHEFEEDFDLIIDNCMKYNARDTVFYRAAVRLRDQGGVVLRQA
In words: BROMOscan DiscoveRx Binding Constant Assay (BRPF2). To be noted: qPCR readout.
Text: as §1, §2, §3, §4, §5

The next assay concerns the target T5, BRPF3 (Homo sapiens, UniProt Q9ULD4).
T5 construct: purchased DiscoveRx (BROMOscan); host or cells: T7 phage in E. coli host derived from BL21
T5 sequence (Q9ULD4 589-693 limits assumed): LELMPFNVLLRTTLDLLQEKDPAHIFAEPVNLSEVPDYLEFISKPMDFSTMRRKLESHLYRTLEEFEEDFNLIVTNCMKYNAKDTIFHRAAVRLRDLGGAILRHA
In words: BROMOscan DiscoveRx Binding Constant Assay (BRPF3). Conditions: qPCR readout.
Text: as §1, §2, §3, §4, §5

Where only a bound is given, the exact number is not on record here.

Experimental findings from patent US20160060260A1, “BROMODOMAIN INHIBITORS FOR TREATING DISEASE” (Board of Regents, The University of Texas System, priority 2014, published 2016) are described below.

One may read the IC50 as the midpoint of a concentration-inhibition curve. One may read the Kd as the concentration at which binding is half-saturated. A lower Kd goes with a tighter complex.

`CCCOc1cc(OCCCCCCN)cc(Oc2cc3c(cc2NS(=O)(=O)c2cn(C)cn2)n(C)c(=O)n3C)c1` [Example 8, N-(6-(3-((6-aminohexyl)oxy)-5-propoxyphenoxy)-1,3-dimethyl-2-oxo-2,3-dihydro-1H-benzo[d]imidazol-5-yl)-1-methyl-1H-imidazole-4-sulfonamide 2,2,2-trifluoroacetate]: the IC50 in assay [1] is 1 to 10 nM. In addition, the Kd at TRIM24 was under 1 nM; on BRPF1, 1 to 10 nM; at BRPF2, 1 to 10 nM; on BRPF3 it was 11 to 100 nM.

Take `Cc1nc(S(=O)(=O)Nc2cc3c(cc2Oc2cccc(OCC(C)C)c2)n(C)c(=O)n3C)cn1C` [Example 45, N-(6-(3-isobutoxyphenoxy)-1,3-dimethyl-2-oxo-2,3-dihydro-1H-benzo[d]imidazol-5-yl)-1,2-dimethyl-1H-imidazole-4-sulfonamide]: the IC50 in assay [1] lay in the range of 10 to 100 nM. Further, the Kd on TRIM24 is 1 to 10 nM; at BRPF1, 11 to 100 nM; at BRPF2, 11 to 100 nM; on BRPF3, 11 to 100 nM.

On to `COCCCOc1cccc(Oc2cc3c(cc2NS(=O)(=O)c2cn(C)c(C)n2)n(C)c(=O)n3C)c1` [Example 46, N-(6-(3-(3-methoxypropoxy)phenoxy)-1,3-dimethyl-2-oxo-2,3-dihydro-1H-benzo[d]imidazol-5-yl)-1,2-dimethyl-1H-imidazole-4-sulfonamide], for which the IC50 in assay [1] was in the range of 100 to 1000 nM. Further, the Kd is 11 to 100 nM on TRIM24, 11 to 100 nM at BRPF1, 11 to 100 nM on BRPF2 and over 100 nM on BRPF3.

As for `CCCOc1cccc(Oc2cc3c(cc2NS(=O)(=O)c2ccc(OC)c(OC)c2)n(C)c(=O)n3C)c1` [Example 110, N-(1,3-dimethyl-2-oxo-6-(3-propoxyphenoxy)-2,3-dihydro-1H-benzo[d]imidazol-5-yl)-3,4-dimethoxybenzenesulfonamide], the IC50 in assay [1] is 10 to 100 nM. Besides, the Kd at TRIM24 is 1 to 10 nM; at BRPF1 it was 1 to 10 nM; on BRPF2, 11 to 100 nM; at BRPF3, 11 to 100 nM.

On to `Cn1c(=O)n(C)c2cc(Oc3cccc(OCC(F)(F)F)c3)c(NS(=O)(=O)c3cccnc3)cc21` [Example 125, N-(1,3-dimethyl-2-oxo-6-(3-(2,2,2-trifluoroethoxy)phenoxy)-2,3-dihydro-1H-benzo[d]imidazol-5-yl)pyridin-3-sulfonamide], for which the IC50 in assay [1] was in the range of 10 to 100 nM. Besides, the Kd at TRIM24 was in the range of 1 to 10 nM; on BRPF1, 1 to 10 nM; at BRPF2, 1 to 10 nM; at BRPF3, 11 to 100 nM.
